Reference: patent US20250171462A1 (NICO Therapeutics, Inc., priority 2022, published 2025)
Where two headings read alike, the source gives them in different places.

Molecular target: T1, full-length SARM1 (FL-SARM1) (Homo sapiens, UniProt Q6SZW1)
T1 sequence (Q6SZW1 28-724): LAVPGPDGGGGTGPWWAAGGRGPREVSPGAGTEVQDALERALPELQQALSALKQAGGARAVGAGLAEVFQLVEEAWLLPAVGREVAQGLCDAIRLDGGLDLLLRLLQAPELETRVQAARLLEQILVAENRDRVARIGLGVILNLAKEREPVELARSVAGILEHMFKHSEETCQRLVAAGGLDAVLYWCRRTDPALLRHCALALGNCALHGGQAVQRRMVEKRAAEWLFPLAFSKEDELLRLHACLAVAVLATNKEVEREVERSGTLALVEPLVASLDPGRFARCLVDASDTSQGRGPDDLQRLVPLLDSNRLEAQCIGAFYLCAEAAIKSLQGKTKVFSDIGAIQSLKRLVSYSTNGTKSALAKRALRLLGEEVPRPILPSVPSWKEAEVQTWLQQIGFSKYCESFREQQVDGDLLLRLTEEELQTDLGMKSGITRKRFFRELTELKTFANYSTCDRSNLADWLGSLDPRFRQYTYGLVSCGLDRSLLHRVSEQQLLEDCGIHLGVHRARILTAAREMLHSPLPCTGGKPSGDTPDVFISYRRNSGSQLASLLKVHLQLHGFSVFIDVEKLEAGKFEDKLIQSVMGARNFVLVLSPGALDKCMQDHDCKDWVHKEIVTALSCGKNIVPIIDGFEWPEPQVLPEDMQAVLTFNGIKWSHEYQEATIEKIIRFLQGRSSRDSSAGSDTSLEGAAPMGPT
Test: FL-SARM1 cellular lysate assay (NAD/NADH-Glo detection of remaining NAD+, NMN-activated)

[1] = Activity (IC50 class), 11 point curve
[2] = Activity (μM) (IC50), 11 point curve
[3] = read-out: Activity (IC50 class), 11 point curve

SMILES: Cc1ccc(NC(=O)C2CCc3cccnc32)cc1-c1ncc(F)cn1 (racemic) [Example 290, N-[3-(5-fluoropyrimidin-2-yl)-4-methylphenyl]-6,7-dihydro-5H-cyclopenta[b]pyridine-7-carboxamide]
- IC50 [1]: > 10 µM
- IC50 [2]: 17 µM

SMILES: Cc1cc(F)c(NC(=O)N2CC3CC2c2ccccc23)cc1-c1cccnn1 (single isomer, unassigned) [Example 202, N-(2-fluoro-4-methyl-5-pyridazin-3-ylphenyl)-9-azatricyclo[6.2.1.02,7]undeca-2(7),3,5-triene-9-carboxamide]
- IC50 [2]: 6.7 µM
- IC50 [3]: 1 to 10 µM

SMILES: Cc1ccc(NC(=O)N2CC3CC(C)C2C3)cc1-c1ccccn1 (single isomer, unassigned) [Example 12, 6-methyl-N-(4-methyl-3-(pyridin-2-yl)phenyl)-2-azabicyclo[2.2.1]heptane-2-carboxamide]
- IC50 [1]: 1 to 10 µM
- IC50 [2]: 2 µM

SMILES: Cc1ccc(NC(=O)N2C3CCC2c2cnccc23)cc1-c1ccccn1 (centres unmarked) [Example 26, N-(4-methyl-3-(pyridin-2-yl)phenyl)-5,6,7,8-tetrahydro-5,8-epiminoisoquinoline-9-carboxamide]
- IC50 [1]: 1 to 10 µM
- IC50 [2]: 1.3 µM

SMILES: Cc1ccc(NC(=O)C2CCC3(CC3)CN2c2ccccn2)cc1-c1ncc(F)cn1 (racemic) [Example 314]
- IC50 [1]: 1 to 10 µM
- IC50 [2]: 1.2 µM

SMILES: Cc1ccc(NC(=O)N2C[C@@H]3CCC[C@@H]32)cc1-c1ncc(F)cn1 (racemic) [Example 222, N-[3-(5-fluoropyrimidin-2-yl)-4-methylphenyl]-6-azabicyclo[3.2.0]heptane-6-carboxamide]
- IC50 [1]: 1 to 10 µM
- IC50 [2]: 3.4 µM

SMILES: Cc1ccnc(-c2cc(NC(=O)[C@@H]3CC3(F)F)ccc2C)c1 [Example 161, (1S)-2,2-difluoro-N-[4-methyl-3-(4-methylpyridin-2-yl)phenyl]cyclopropane-1-carboxamide]
- IC50 [1]: 1 to 10 µM
- IC50 [2]: 3.5 µM

SMILES: Cc1ccc(NC(=O)N2C3CCCC2C3)cc1-c1cccc(C#N)n1 [Example 44, N-(3-(6-cyanopyridin-2-yl)-4-methylphenyl)-6-azabicyclo[3.1.1]heptane-6-carboxamide]
- IC50 [2]: 0.1 µM
- IC50 [3]: 0.0001 to 1 µM

SMILES: Cc1ccc(NC(=O)[C@@H]2CN(CC(F)(F)F)C[C@H]2c2ccccn2)cc1-c1ncc(F)cn1 (racemic) [Example 280, trans-N-[3-(5-fluoropyrimidin-2-yl)-4-methylphenyl]-4-pyridin-2-yl-1-(2,2,2-trifluoroethyl)pyrrolidine-3-carboxamide]
- IC50 [1]: > 10 µM
- IC50 [2]: 28 µM

SMILES: O=C(Nc1ccc(C(F)(F)F)c(-c2ncc(F)cn2)c1)N1CCCC2CC2C1 (centres unmarked) [Example 304, N-(3-(5-fluoropyrimidin-2-yl)-4-(trifluoromethyl)phenyl)-3-azabicyclo[5.1.0]octane-3-carboxamide]
- IC50 [1]: 1 to 10 µM
- IC50 [2]: 2.4 µM

SMILES: O=C(Nc1ccc(C2CC2)c(-c2ccc(F)cn2)c1)[C@@H]1CC1(F)F [Example 155, (1S)-N-[4-cyclopropyl-3-(5-fluoropyridin-2-yl)phenyl]-2,2-difluorocyclopropane-1-carboxamide]
- IC50 [1]: 1 to 10 µM
- IC50 [2]: 3.5 µM

SMILES: Cc1cnc(-c2cc(NC(=O)N3[C@@H]4C[C@@H](C)C[C@H]3C4)c(F)cc2Cl)nn1 [Example 320]
- IC50 [2]: 0.6 µM
- IC50 [3]: 0.0001 to 1 µM

SMILES: COC(C)[C@@]12CC(C[C@@H](C)C1)N2C(=O)Nc1ccc(C)c(-c2ncc(F)cn2)c1 (single isomer, unassigned) [Example 192, cis-N-(3-(5-fluoropyrimidin-2-yl)-4-methylphenyl)-1-(−1-methoxyethyl)-3-methyl-6-azabicyclo[3.1.1]heptane-6-carboxamide]
- IC50 [1]: 1 to 10 µM
- IC50 [2]: 1 µM

SMILES: Cc1ccc(NC(=O)N2C3C[C@H](C#N)C[C@@H]2C3)cc1-c1ccccn1 [Example 74, cis-3-cyano-N-(4-methyl-3-(pyridin-2-yl)phenyl)-6-azabicyclo[3.1.1]heptane-6-carboxamide]
- IC50 [2]: 0.3 µM
- IC50 [3]: 0.0001 to 1 µM

SMILES: Cc1ccc(NC(=O)N2C3CC2CN(c2ncccn2)C3)cc1-c1ccccn1 [Example 72, N-(4-methyl-3-(pyridin-2-yl)phenyl)-3-(pyrimidin-2-yl)-3,6-diazabicyclo[3.1.1]heptane-6-carboxamide]
- IC50 [1]: 1 to 10 µM
- IC50 [2]: 1.2 µM

SMILES: Cc1ccc(NC(=O)N2C3CCC2[C@@H](C)C3)cc1-c1ncc(F)cn1 (single isomer, unassigned) [Example 196, cis-N-(3-(5-fluoropyrimidin-2-yl)-4-methylphenyl)-2-methyl-7-azabicyclo[2.2.1]heptane-7-carboxamide]
- IC50 [2]: 0.8 µM
- IC50 [3]: 0.0001 to 1 µM

SMILES: Cc1ccc(NC(=O)[C@@H]2[C@@H]3CC[C@H]2N(CC(F)(F)F)C3)cc1-c1ccccn1 (single isomer, unassigned) [Example 105, trans-N-(4-methyl-3-(pyridin-2-yl)phenyl)-2-(2,2,2-trifluoroethyl)-2-azabicyclo[2.2.1]heptane-7-carboxamide]
- IC50 [1]: > 10 µM
- IC50 [2]: 17 µM

SMILES: Cc1ccc(NC(=O)C2[C@@H]3CC[C@@]2(c2ccnn2C)C3)cc1-c1ncc(F)cn1 (single isomer, unassigned) [Example 204, N-[3-(5-fluoropyrimidin-2-yl)-4-methylphenyl]-1-(2-methylpyrazol-3-yl)bicyclo[2.1.1]hexane-5-carboxamide]
- IC50 [2]: 0.5 µM
- IC50 [3]: 0.0001 to 1 µM

SMILES: Cc1ccc(NC(=O)N2C3CCCC2C3)cc1-c1ccc(F)cn1 [Example 40, N-(3-(5-fluoropyridin-2-yl)-4-methylphenyl)-6-azabicyclo[3.1.1]heptane-6-carboxamide]
- IC50 [2]: 0.08 µM
- IC50 [3]: 0.0001 to 1 µM

SMILES: Cc1nnc(C2CCCN2C(=O)Nc2ccc(C)c(-c3ccccn3)c2)o1 (racemic) [Example 87, 2-(5-methyl-1,3,4-oxadiazol-2-yl)-N-(4-methyl-3-pyridin-2-ylphenyl)pyrrolidine-1-carboxamide]
- IC50 [1]: > 10 µM
- IC50 [2]: 17 µM

SMILES: Cc1ccc(NC(=O)[C@H]2C[C@H]3C[C@H]3N2c2cncnn2)cc1-c1ncc(F)cn1 [Example 173, (1R,3R,5R)—N-(3-(5-fluoropyrimidin-2-yl)-4-methylphenyl)-2-(1,2,4-triazin-6-yl)-2-azabicyclo[3.1.0]hexane-3-carboxamide]
- IC50 [1]: 1 to 10 µM
- IC50 [2]: 4.2 µM

SMILES: Cc1nnc(CN2[C@@H](C(=O)Nc3ccc(C)c(-c4ncc(F)cn4)c3)C[C@H]3C[C@H]32)o1 [Example 171, (1R,3R,5R)—N-(3-(5-fluoropyrimidin-2-yl)-4-methylphenyl)-2-((5-methyl-1,3,4-oxadiazol-2-yl)methyl)-2-azabicyclo[3.1.0]hexane-3-carboxamide]
- IC50 [1]: > 10 µM
- IC50 [2]: 18 µM

SMILES: Cc1cc(C)c(-c2ccccn2)cc1NC(=O)N1C2CCCC1C2 [Example 76, N-(2,4-dimethyl-5-(pyridin-2-yl)phenyl)-6-azabicyclo[3.1.1]heptane-6-carboxamide]
- IC50 [1]: 1 to 10 µM
- IC50 [2]: 6.8 µM

SMILES: Cc1ccc(NC(=O)C2CC3CCC2C3)cc1-c1ccccn1 (centres unmarked) [Example 147, N-(4-methyl-3-pyridin-2-ylphenyl)bicyclo[2.2.1]heptane-2-carboxamide]
- IC50 [2]: 0.2 µM
- IC50 [3]: 0.0001 to 1 µM

SMILES: Cc1ccc(NC(=O)CC2CCC2)cc1-c1cccnn1 [Example 167, 2-cyclobutyl-N-(4-methyl-3-pyridazin-3-ylphenyl)acetamide]
- IC50 [1]: > 10 µM
- IC50 [2]: 11 µM

SMILES: O=C(Nc1ccc(OC(F)(F)F)c(-c2ccccn2)c1)N1C2CCCC1C2 [Example 59, N-(3-(pyridin-2-yl)-4-(trifluoromethoxy)phenyl)-6-azabicyclo[3.1.1]heptane-6-carboxamide]
- IC50 [2]: 0.6 µM
- IC50 [3]: 0.0001 to 1 µM

SMILES: Cc1ccc(NC(=O)N2C3CCCC2C3)cc1-c1nccc(C(F)(F)F)n1 [Example 68, N-(4-methyl-3-(4-(trifluoromethyl)pyrimidin-2-yl)phenyl)-6-azabicyclo[3.1.1]heptane-6-carboxamide]
- IC50 [1]: 1 to 10 µM
- IC50 [2]: 4.7 µM

SMILES: Cc1ccc(NC(=O)N2C3CCCC2C3)cc1-c1cc(C#N)cnn1 [Example 63, N-(3-(5-cyanopyridazin-3-yl)-4-methylphenyl)-6-azabicyclo[3.1.1]heptane-6-carboxamide]
- IC50 [2]: 0.7 µM
- IC50 [3]: 0.0001 to 1 µM

SMILES: COc1ccc(-c2cc(NC(=O)[C@@H]3CC3(F)F)ccc2C)nc1 [Example 152, (1S)-2,2-difluoro-N-[3-(5-methoxypyridin-2-yl)-4-methylphenyl]cyclopropane-1-carboxamide]
- IC50 [1]: 1 to 10 µM
- IC50 [2]: 3.6 µM

SMILES: Cc1ccc(NC(=O)C2COC(C)(C)CN2c2ncccn2)cc1-c1ncccn1 (single isomer, unassigned) [Example 208, 6,6-dimethyl-N-(4-methyl-3-(pyrimidin-2-yl)phenyl)-4-(pyrimidin-2-yl)morpholine-3-carboxamide]
- IC50 [1]: 1 to 10 µM
- IC50 [2]: 3.3 µM

SMILES: CO[C@H]1C[C@@H]2C[C@H](C1)N2C(=O)Nc1ccc(C)c(-c2ccccn2)c1 [Example 45, trans-3-Methoxy-N-(4-methyl-3-(pyridin-2-yl)phenyl)-6-azabicyclo[3.1.1]heptane-6-carboxamide]
- IC50 [2]: 0.5 µM
- IC50 [3]: 0.0001 to 1 µM
